Measurements reported in patent EP3076175A1, “DETECTION AND QUANTIFICATION OF O-ACETYL-ADP-RIBOSE AS A READOUT SYSTEM FOR MEASURING THE ACTIVITY OF E.G. SIRTUINS” (Boehringer Ingelheim International GmbH, priority 2015, dated 2016).
Read-outs that look alike come from different tables or passages of the source.

Columns and labels:
[1] = biological target: T1, GST-tagged macro-domain protein (Archaeoglobus fulgidus, UniProt O28751); experiment: Titration curve: competition with biotinylated ADP-ribose for binding to the macro-domain protein (luminescence signal); settings: rising concentration of competitor against biotinylated ADP-ribose
T1 construct: For the N-terminal GST fusion of AF1521 the gene for residues 1-192 was synthesized; made in house; host or cells: E. coli BL21 Star (DE3) / BL21 Tuner (DE3)
T1 sequence (O28751 1-192): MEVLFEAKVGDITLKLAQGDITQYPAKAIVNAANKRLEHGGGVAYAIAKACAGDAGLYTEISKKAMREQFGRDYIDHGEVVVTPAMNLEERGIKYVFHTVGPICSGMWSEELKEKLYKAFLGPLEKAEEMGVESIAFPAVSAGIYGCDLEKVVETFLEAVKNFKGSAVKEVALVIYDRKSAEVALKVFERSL
Method: (§1) After that 2 µl of an acetylated peptide (final concentration of 10 µM) mixed with NAD^+ (final concentration of 500 µM, dissolved in assay buffer 1) and 2 µl of SIRT enzyme (final concentration of 20 nM for 1x SIRT (100% CTL) and 200 nM for 10x SIRT (1000% CTL), dissolved in assay buffer 1) are added by a Multidrop combi. After an incubation time of 20 min at room temperature 4 µl biotinylated ADP-ribose (final concentration 50 nM, dissolved in assay buffer 2) and 4 µl GST tagged macro-domain protein (final concentration 50 nM, dissolved in assay buffer 2) are added by a Multidrop combi. After another incubation time of 60 min at room temperature 4 µl of acceptor beads and 4 µl of donor beads (final concentration of each bead-type 20 µg/ml, both dissolved in assay buffer 2) are added by a Multidrop combi. The plates are then sealed and incubated in the dark at room temperature for at least 30 min. After the incubation period, the plates are measured using the Envision reader from Perkin Elmer.
Assay was performed as described in example 4 (general SOP) besides the fact that instead of ADP-ribose 2'/3'-O-acetyl-ADP-ribose was used for the titration curve.
Assay was performed as described in example 4 (general SOP) employing non-biotinylated ADP-ribose for the titration curve.

SIRT1 = biological target: T2, SIRT1 (Homo sapiens, UniProt Q96EB6); experiment: Macro-domain protein assay for SIRT modulators (detection of generated 2'/3'-O-acetyl-ADP-ribose, donor/acceptor beads); assay type: biochemical; settings: 10x SIRT (200 nM), 10 µM compound
T2 construct: made in house; host or cells: E. coli BL21 Star (DE3)
T2 sequence (Q96EB6 183-664): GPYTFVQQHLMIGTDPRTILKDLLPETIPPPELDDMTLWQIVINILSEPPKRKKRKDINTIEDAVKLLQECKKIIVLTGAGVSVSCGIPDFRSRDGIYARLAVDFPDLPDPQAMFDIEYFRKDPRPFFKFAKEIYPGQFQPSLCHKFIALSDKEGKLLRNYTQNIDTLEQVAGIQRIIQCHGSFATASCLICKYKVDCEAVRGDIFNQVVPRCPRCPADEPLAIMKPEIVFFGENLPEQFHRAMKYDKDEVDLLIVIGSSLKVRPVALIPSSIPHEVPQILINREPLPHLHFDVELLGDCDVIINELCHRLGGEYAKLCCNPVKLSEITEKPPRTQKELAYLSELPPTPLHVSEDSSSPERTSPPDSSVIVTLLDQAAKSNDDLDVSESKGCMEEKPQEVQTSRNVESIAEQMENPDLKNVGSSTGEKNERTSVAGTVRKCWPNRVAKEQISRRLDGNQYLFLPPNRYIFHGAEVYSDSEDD
Method: 200 nl of test compound in 100% DMSO (final concentration of compound 10 µM; DMSO 1%) is given in the 384-well plates by a Cybio Cybiwell capillary head pipettor.
as §1, with “Elmer. […]” for “Elmer.”

GST-tagged AF1521 = biological target: T3, GST-tagged AF1521 (Archaeoglobus fulgidus, UniProt O28751); experiment: Nucleotide ligand binding assay by isothermal calorimetry (ITC); settings: for ΔG: change in Gibbs free energy of binding; for ΔS: change in entropy
T3 construct: For the N-terminal GST fusion of AF1521 the gene for residues 1-192 was synthesized; made in house; host or cells: E. coli BL21 Star (DE3) / BL21 Tuner (DE3)
T3 sequence (O28751 1-192): T1 sequence (O28751 1-192)
Method: Nucleotide binding assays were performed using isothermal calorimetry (ITC) on a ITC200 (Microcal) at 25°C. Protein was buffer exchanged using PD10 columns (GE Healthcare) into 50 mM Tris pH 7.5; 150 mM NaCl and 1 mM TCEP. Nucleotides were resuspended in ITC buffer and their concentration were determined through absorbance at 260 nm. Macro-domain proteins were used at 50 µM concentration, whereas the nucleotides were used at 500 µM. ITC measurements were performed by 20 successive injections of 2 µl of the nucleotides into 280 µl of AF1521 with a duration of 4 seconds and 150 seconds of spacing. Data analysis was done using the software ORIGIN 7.0 (Microcal).

[2] = ITC at 25°C, protein 50 µM, nucleotide 500 µM, read-out: KD

Row | Compound | luminescence signal [1] | amount of generated 2'/3'-O-acetyl-ADP-ribose (SIRT1) | -TΔS (GST-tagged AF1521; ITC at 25°C) [kcal/mol] | Kd (GST-tagged AF1521; [2]) [nM] | ΔG (GST-tagged AF1521; ITC at 25°C) [kcal/mol] | ΔH (GST-tagged AF1521; change in enthalpy, ITC at 25°C) [kcal/mol] | ΔS (GST-tagged AF1521; ITC at 25°C) | Kd (GST-tagged AF1521; ITC, read-out: KD value) [nM]
1 | Nc1ncnc2c1ncn2[C@@H]1O[C@H](COP(=O)(O)OP(=O)(O)OC[C@H]2OC(O)[C@H](O)[C@@H]2O)[C@@H](O)[C@H]1O (some centres unmarked) [ADP-ribose] | the luminescence signal decreases | – | – | – | – | – | – | –
2 | O=C(Nc1nccs1)c1cccc2ccc(-c3cccc(OC4CCNCC4)c3)nc12 [EX00001253] | – | reduces the amount of generated 2'/3'-O-acetyl-ADP-ribose | – | – | – | – | – | –
3 | Cc1ccc(C(=O)Nc2ccc(S(=O)(=O)O)c3cc(S(=O)(=O)O)cc(S(=O)(=O)O)c23)cc1NC(=O)c1cccc(NC(=O)Nc2cccc(C(=O)Nc3cc(C(=O)Nc4ccc(S(=O)(=O)O)c5cc(S(=O)(=O)O)cc(S(=O)(=O)O)c45)ccc3C)c2)c1 [Suramin] | – | reduces the amount of generated 2'/3'-O-acetyl-ADP-ribose | – | – | – | – | – | –
4 | CC(=O)O[C@@H]1[C@@H](COP(=O)(O)OP(=O)(O)OC[C@H]2O[C@@H](n3cnc4c(N)ncnc43)[C@H](O)[C@@H]2O)OC(O)[C@@H]1O (some centres unmarked) [acetyl ADP-ribose, 2'/3'-O-acetyl-ADP-ribose] | the luminescence signal decreases | – | -2.271 | 4140 | -7.339 | -5.07 | 7,63 cal/mol/K | –
5 | Nc1ncnc2c1ncn2[C@@H]1O[C@H](COP(=O)(O)OP(=O)(O)OC[C@@H](O)[C@@H](O)[C@@H](O)C=NOCC(=O)NCCOCCOCCOCCOCCNC(=O)CCCC[C@@H]2SC[C@@H]3NC(=O)N[C@@H]32)[C@@H](O)[C@H]1O [biotinylated ADP-ribose] | – | – | 0.383 | 2550 | -7.64 | – | -1,3 cal/mol/K | 2500
